Source: patent EP0533084A1, “Pharmaceutical compositions comprising natriuretic peptides or neutral endopeptidase inhibitors for treating and preventing myointimal proliferation” (SCHERING CORPORATION, priority 1991, dated 1993)

Tested on: carotid artery intimal proliferation
Assay: balloon catheter injury of the left carotid artery in spontaneously hypertensive rats; morphometric and DNA analyses of intimal proliferation 14 days post-injury
Type: in vivo, male spontaneously hypertensive rats
Conditions: SHR, means ± SEM
Method: Briefly, rats were anesthetized with Metofane (methoxyflurane) and a 2 Fr Fogarty embolectomy catheter was inserted into the left external carotid artery. The catheter was advanced 5 cm, inflated and retracted 3 times, turning the catheter 90^o each time. […] Animals were autopsied following exsanguination with ketamine (40 mg/kg) plus xylazine (10 mg/kg) i.m. anesthesia at specified timepoints following balloon injury.
Standard samples of the control right and balloon injured left carotid arteries were taken for DNA and morphometric analyses. […] The DNA results were expressed as the ratio of the left or ballooned carotid to the right control carotid. Three samples were taken for histology at 2.5 mm intervals cephalad from the DNA sample from each carotid artery and fixed in 4% paraformaldehyde containing 10% sucrose (wt/vol). Paraffin-embedded sections were stained with the Gomori trichrome-aldehyde fuchsin stain and computer-assisted morphometric analyses were performed using a Bioquant System IV image analyzer (R&M Biometrics Inc.). Morphometric measurements included: maximal intimal thickness (mm), intimal cross sectional area (mm²), and intimal cross sectional area/medial cross sectional area. […]

[1] = Exp. 5A, 10 mpk once a day, control see Exp. 1A

SMILES: CC1(C)OCC(COC(=O)[C@H](Cc2ccccc2)N[C@@H](Cc2ccccc2)C(=O)NCCC(=O)O)O1 (stereo partly drawn) [compound A, N-[N-[(L)-[1-[(2,2-dimethyl-1,3-dioxolan-4-yl)methoxy]carbonyl]-2-phenylethyl]-L-phenylalanyl]-ß-alanine]
- Carotid DNA (ballooned/ control) (Exp. 1, 90 mpk b.i.d.): 3.16 ±0.35
- Intimal Area (Exp. 1, 90 mpk b.i.d.): 0.99 ±0.010 mm^2
- Intimal Area/ Medial Area (Exp. 1, 90 mpk b.i.d.): 0.653 ±0.067
- Maximal Intimal Thickness (Exp. 1, 90 mpk b.i.d.): 0.104 ±0.011 mm
- Carotid DNA (ballooned/ control) (Exp. 1A, 90 mpk b.i.d.): 4.60 ±0.67
- Intimal Area (Exp. 1A, 90 mpk b.i.d.): 0.099 ±0.010 mm^2
- Intimal Area/ Medial Area (Exp. 1A, 90 mpk b.i.d.): 0.692 ±0.066
- Maximal Intimal Thickness (Exp. 1A, 90 mpk b.i.d.): 0.110 ±0.010 mm

SMILES: CCOC(=O)[C@H](CCSC)NC(=O)C(CSC(C)=O)Cc1ccccc1C (stereo partly drawn) [compound B, N-[2-acetylthiomethyl-3-(2-methylphenyl)-propionyl]-methionine ethyl ester]
- Carotid DNA (ballooned/ control) (Exp. 2, 30 mpk b.i.d.): 3.47 ±0.40
- Intimal Area (Exp. 2, 30 mpk b.i.d.): 0.071 ±0.010 mm^2
- Intimal Area/ Medial Area (Exp. 2, 30 mpk b.i.d.): 0.441 ±0.052
- Maximal Intimal Thickness (Exp. 2, 30 mpk b.i.d.): 0.085 ±0.009 mm
- Carotid DNA (ballooned/ control) (Exp. 2A, 10 mpk b.i.d.): 3.12 ±0.22
- Intimal Area (Exp. 2A, 10 mpk b.i.d.): 0.106 ±0.010 mm^2
- Intimal Area/ Medial Area (Exp. 2A, 10 mpk b.i.d.): 0.719 ±0.062
- Maximal Intimal Thickness (Exp. 2A, 10 mpk b.i.d.): 0.112 ±0.012 mm
- Carotid DNA (ballooned/ control) (Exp. 4, 10 mpk b.i.d.): 4.38 ±0.73
- Intimal Area (Exp. 4, 10 mpk b.i.d.): 0.085 ±0.009 mm^2
- Intimal Area/ Medial Area (Exp. 4, 10 mpk b.i.d.): 0.592 ±0.067
- Maximal Intimal Thickness (Exp. 4, 10 mpk b.i.d.): 0.095 ±0.012 mm

SMILES: CCOC(=O)[C@H](CCc1ccccc1)N[C@@H](C)C(=O)N1CC2(C[C@H]1C(=O)O)SCCS2 [compound D, spirapril, reference compound]
- Carotid DNA (ballooned/ control) [1]: 1.94 ±0.32
- Intimal Area [1]: 0.064 ±0.005 mm^2
- Intimal Area/ Medial Area [1]: 0.500 ±0.049
- Maximal Intimal Thickness [1]: 0.082 ±0.010 mm
